Patent US6683089B2, “N-allyoxyethyl-1,2,3,4,5,6-hexahydro-2,6-methano-3-benzazocine-10-ols” (Boehringer Ingelheim Pharma GmbH & Co. KG, priority 2002, dated 2004)
Counter-ions that a name gives are not always drawn.

SMILES | melting point [°C]
C=CCO[C@@H](C)CN1CC[C@@]2(C)c3cccc(O)c3C[C@@H]1C2(C)C (as salt: hydrochloride) | 239
C/C=C/CO[C@@H](C)CN1CC[C@@]2(C)c3cccc(O)c3C[C@@H]1C2(C)C (as salt: hydrochloride) | 205
C=C(C)CO[C@@H](C)CN1CC[C@@]2(C)c3cccc(O)c3C[C@@H]1C2(C)C (as salt: hydrochloride) | 240
